{"source": "patent US20040229791A1", "about": "“Compositions and methods of modulating TGF-beta activity by fatty acids” (priority 2002, published 2004)", "key": {"[1]": {"tested_on": "Mv1Lu cells", "experiment": "[Methyl-3H]-thymidine incorporation assay, TGF-β2-induced growth inhibition", "assay_type": "cell-based, mink", "source_text": "The levels of TGF ? β and ? 2M* also increase dramatically. α2M* is capable of inhibiting TGF- ? activity by forming complexes with TGF- ? and thus preventing it from binding to TGF ? β receptors in cells involved. Fatty acids may potentiate TGF ? β activity by blocking complex formation of ? 2M* and TGF ? β under these conditions. To test this possibility, we determined the effects of arachidonic acid on ^125I-TGF- ? 2 binding (in the presence and absence of α2M*) to Mv1Lu cells. ? 2M* is known to inhibit TGF- ? 2 more strongly than TGF ? β1 binding to T receptors in cells (13). Various concentrations of ^125I-TGF- ? 2 were preincubated with 200 μg/ml of ? 2M* in the presence or absence of 30 μM arachidonic acid for 30 min prior to the performance of binding assays in Mv1Lu cells. […] The residual ^125I-TGF- ? binding associated with the cells after ? 2M* inhibition was mainly due to non-specific binding of ^125I-TGF- ? 2. […] In the presence of 200 μg/ml of ? 2M*, the dose-response curve of TGF ? β2 shifted to the right. […] Addition of arachidonic acid at 0.5 and 1 μM reversed the inhibitory effect of. α2M* on TGF- ? 2-induced growth inhibition as measured by [methyl-^3H]-thymidine incorporation.\n[Methyl-^3H]-Thymidine Incorporation Assay—Mv1Lu cells were plated at a cell density of 7.5×10^4 cells/well in DMEM containing 0.1% fetal calf serum in 48-well cluster dishes. After 4 hr at 37° C. (to allow cell adherence), cells were treated with various concentrations of TGF- ? 2,2M* (0 or 200 μg/ml) and arachidonic acid ([…] or 1 μM). After 1h at 37° C., cells were pulsed with 1 μCi/ml [methyl-^3H]-thymidine for 2 hr. The [methyl-^3H]-th incorporation into cellular DNA was carried out in triplicate as described previously (23)."}, "[2]": {"experiment": "Plasma clearance of 125I-TGF-β1 with and without α2M* and arachidonic acid", "assay_type": "in vivo, mice", "details": "control experiments, no α2M*", "method": "TGF ? β1-α2M* and TGF- ? 2- ? 2M* complexes are cleared from plasma by the ? liver (30). To test the possibility that fatty acids may be able to affect the plasma clearance of TGF ? β and α2M* complexes, ^125I-TGF ? β1 or ^125I-TGF- ? 2 were prei presence or absence of 10 μM arachidonic acid at room temperature for 30 min, and then injected into mice via tail vein according to published procedures (19). At several time intervals (10 sec, 1, 2, 3, 5, 10, 15, 20, 30 and 60 min) about 50 μl of blood was collected and counted by a γ-counter. […] The t 1+α2M* or ^125I-TGF- ? 2+α2M* were approximately 4 min. These twith published values of free ^125I-TGF- ? 1,2 and ^125I-TGF- ? 1,2-α2M* complexes, respe (19). In the presence of arachidonic acid, the t1/2s of ^125I-TGF ? β1+α2M* and ^125I-TGF α2M* were decreased to approximately 1-2 min; these are essentially identical to the t1/2s of free ^125I-TGF- ? 1 and ^125I-TGF ? β2 (FIGS. 7A and B). In control experiments, arachidonic acid did no affect the plasma clearance of free ^125I-TGF ? β1 and ^125I-TGF- ? 2.\nPlasma clearance of ^125I-TGF ? β in the presence and absence of ? 2M*-^125I-TGF- ? 1 nM) or ^125I-TGF- ? 2 (1 nM) was pre-incubated with ? […] The radioactivity in the blood sample obtained at 10 s was taken as 100%."}}, "data": [{"smiles": "CCCCC/C=C\\C/C=C\\C/C=C\\C/C=C\\CCCC(=O)O", "note": "[arachidonic acid]", "values": [{"measurement": "reversal of the inhibitory effect of α2M* on TGF-β2-induced growth inhibition", "setting": "[1]; 0.5 μM arachidonic acid, 200 μg/ml α2M*", "result": "reversed"}, {"measurement": "reversal of the inhibitory effect of α2M* on growth inhibition induced by 1 pM TGF-β2", "setting": "[1]; 1 μM arachidonic acid, 200 μg/ml α2M*", "result": "almost completely reversed"}, {"measurement": "effect on growth inhibition induced by TGF-β2 in the absence of α2M*", "setting": "[1]; absence of α2M*", "result": "did not affect growth inhibition"}, {"measurement": "effect on plasma clearance of free 125I-TGF-β1", "setting": "[2]", "result": "did no affect"}]}]}
